Values quoted from earlier work, collected in US20110236473A1, “STABLE ALISKIREN FORMULATIONS” (Sanovel Ilac Sanayi Ve Ticaret Anonim Sirketi, priority 2010, published 2011).
Like-named read-outs stand apart in the source and are kept apart here.

Measured: solubility

COCCCOc1cc(C[C@@H](C[C@H](N)[C@@H](O)C[C@@H](C(=O)NCC(C)(C)C(N)=O)C(C)C)C(C)C)ccc1OC [Aliskiren hemifumarate, (2S,4S,5S,7S)-5-amino-N-(2-carbamoyl-2-methylpropyl)-4-hydroxy-2-isopropyl-7-[4-methoxy-3-(3-methoxypropoxy)benzyl]-8-methylnonamide]
freely soluble: in n-octanol | in phosphate buffer | in water
